Test results: ChEMBL document CHEMBL6092174, “Synthesis and anti-influenza virus activity of substituted dibenzoxepine-based baloxavir derivatives” (Eur J Med Chem, 2024)
pEC50: −log10 of the molar value. Calls of active or inactive are those of the source. The rule behind the calls is not given here.

Tests used:
[1] = Metabolic stability in human liver microsomes assessed as half life at 1 uM in presence of NADPH by LC-MS/MS analysis; assay type: ADME, Microsome; conditions: time 60 min
[2] = system: Influenza A virus; test: Antiviral activity against Influenza A virus H3N2 (A/Aichi/2/68) infected in dog MDCK cells assessed as reduction in cytopathic effect incubated for 2 days; assay type: functional, organism-based; conditions: 48 h
[3] = Cytotoxicity against dog MDCK cells assessed as reduction in cell viability incubated for 2 days by CCK-8 assay; assay type: toxicity, cell-based, Canis lupus familiaris; conditions: time 2 day
[4] = Selectivity index, ratio of CC50 for cytotoxicty against MDCK cells to EC50 for antiviral activity against Influenza A virus H3N2 (A/Aichi/2/68) infected in dog MDCK cells; assay type: toxicity, cell-based; conditions: read-out: Selectivity Index
[5] = system: Influenza A virus; test: Potency index, ratio of baloxavir EC50 to test compound EC50 for antiviral activity against Influenza A virus H3N2 (A/Aichi/2/68) infected in dog MDCK cells assessed as reduction in cytopathic effect incubated for 2 days; assay type: functional; conditions: time 2 day
[6] = system: Influenza A virus; test: Antiviral activity against Influenza A virus H1N1(A/Puetro Rico/8/34) infected in dog MDCK cells assessed as reduction in cytopathic effect incubated for 2 days; assay type: functional, organism-based; conditions: 48 h
[7] = system: Influenza A virus; test: Antiviral activity against Influenza A virus H1N1(A/FM/1/47) infected in dog MDCK cells assessed as reduction in cytopathic effect incubated for 2 days; assay type: functional, organism-based; conditions: 48 h
[8] = system: Influenza B virus; test: Antiviral activity against Influenza B virus IBV/Lee/40 infected in dog MDCK cells assessed as reduction in cytopathic effect incubated for 2 days by TCID50 method; assay type: functional, organism-based; conditions: IBV/Lee/40, MDCK, 48 h
[9] = Metabolic stability in mouse liver microsomes assessed as half life at 1 uM in presence of NADPH by LC-MS/MS analysis; assay type: ADME, Microsome; conditions: time 60 min
[10] = Metabolic stability in human liver microsomes assessed as intrinsic clearance at 1 uM incubated for 60 mins in presence of NADPH by LC-MS/MS analysis; assay type: ADME, Microsome; conditions: 1 h
[11] = Metabolic stability in mouse liver microsomes assessed as intrinsic clearance at 1 uM incubated for 60 mins in presence of NADPH by LC-MS/MS analysis; assay type: ADME, Microsome; conditions: 1 h
[12] = Half life in CD-1 mouse at 15 mg/kg, po measured upto 24 hrs by LC-MS/MS analysis; assay type: ADME, organism-based; conditions: in vivo
[13] = Half life in CD-1 mouse at 1 mg/kg, iv measured upto 24 hrs by LC-MS/MS analysis; assay type: ADME, organism-based; conditions: in vivo
[14] = Tmax in CD-1 mouse at 15 mg/kg, po measured upto 24 hrs by LC-MS/MS analysis; assay type: ADME, organism-based; conditions: in vivo
[15] = Tmax in CD-1 mouse at 1 mg/kg, iv measured upto 24 hrs by LC-MS/MS analysis; assay type: ADME, organism-based; conditions: in vivo
[16] = Cmax in CD-1 mouse at 15 mg/kg, po measured upto 24 hrs by LC-MS/MS analysis; assay type: ADME, organism-based; conditions: in vivo
[17] = Cmax in CD-1 mouse at 1 mg/kg, iv measured upto 24 hrs by LC-MS/MS analysis; assay type: ADME, organism-based; conditions: in vivo
[18] = AUC (0 to infinity) in CD-1 mouse at 15 mg/kg, po measured upto 24 hrs by LC-MS/MS analysis; assay type: ADME, organism-based; conditions: in vivo
[19] = AUC (0 to infinity) in CD-1 mouse at 1 mg/kg, iv measured upto 24 hrs by LC-MS/MS analysis; assay type: ADME, organism-based; conditions: in vivo
[20] = MRT (0 to infinity) in CD-1 mouse at 15 mg/kg, po measured upto 24 hrs by LC-MS/MS analysis; assay type: ADME, organism-based; conditions: in vivo
[21] = MRT (0 to infinity) in CD-1 mouse at 1 mg/kg, iv measured upto 24 hrs by LC-MS/MS analysis; assay type: ADME, organism-based; conditions: in vivo
[22] = Oral bioavailability in CD-1 mouse at 15 mg/kg measured upto 24 hrs by LC-MS/MS analysis; assay type: ADME, organism-based; conditions: in vivo
[23] = system: Influenza A virus; test: Antiviral activity against Influenza A virus H1N1 infected in dog MDCK cells assessed as reduction in polymerase acidic protein expression at 10 to 20 nM by Western blot analysis; assay type: functional, organism-based; conditions: dose 10-20 nM
[24] = system: Influenza A virus; test: Antiviral activity against Influenza A virus H1N1 infected in dog MDCK cells assessed as disruption of nuclear protein expression at 10 to 20 nM by Western blot analysis; assay type: functional, organism-based; conditions: dose 10-20 nM
[25] = system: HEK293T; test: Inhibition of Influenza A virus RdRp transfected in HEK293T co-expressing PB1/PB2/PA/NP/firefly luciferase/Renilla luciferase incubated for 24 hrs relative to control; assay type: cell-based; conditions: dose or concentration not given here
[26] = system: HEK293T; test: Inhibition of Influenza A virus RdRp transfected in HEK293T co-expressing PB1/PB2/PA/NP/firefly luciferase/Renilla luciferase at 1 nM incubated for 24 hrs relative to control; assay type: cell-based

O=C1c2c(O)c(=O)ccn2N([C@H]2c3ccc(F)cc3COc3ccccc32)[C@@H]2COCCN12
half-life at 1 µM [1]: 11.6 h | pEC50 [2]: 9.11 | CC50 at 48 h [3]: > 50000 nM | selectivity ratio [4]: > 64100 | Ratio [5]: >5 | pEC50 [6]: 8.48 | pEC50 [7]: 8.78 | pEC50 [8]: 8.67 | half-life at 1 µM [9]: 2.45 h | CLint [10]: 2 µL/min/mg | CLint [11]: 9.4 µL/min/mg | half-life [12]: 2.83 h | half-life [13]: 2.6 h | Tmax [14]: 1.33 h | Tmax [15]: 4.8 min | Cmax [16]: 548 ng/mL | Cmax [17]: 211 ng/mL | AUC(0-inf) [18]: 2790 ng·h/mL | AUC(0-inf) [19]: 343 ng·h/mL | MRT inf [20]: 4 h | MRT inf [21]: 2.91 h | bioavailability [22]: 54.3% | Activity [23]: Active | Activity [24]: Active | inhibition [25]: 82.6%

O=C(O)Cc1ccccc1Nc1c(Cl)cccc1Cl [DICLOFENAC]
half-life at 1 µM [1]: 0.0938 h | half-life at 1 µM [9]: 0.672 h | CLint [10]: 246 µL/min/mg | CLint [11]: 34.4 µL/min/mg

O=C1c2c(O)c(=O)ccn2N([C@H]2c3ccccc3COc3cc(F)ccc32)[C@@H]2COCCN12
pEC50 [2]: 8.93 | CC50 at 48 h [3]: > 50000 nM | selectivity ratio [4]: > 42700

N#Cc1ccc2c(c1)COc1ccccc1[C@H]2N1[C@@H]2COCCN2C(=O)c2c(O)c(=O)ccn21
pEC50 [2]: 8.03 | CC50 at 48 h [3]: > 50000 nM | selectivity ratio [4]: > 5300

CCOC(=O)Cc1ccc2c(c1)[C@@H](N1[C@@H]3COCCN3C(=O)c3c(O)c(=O)ccn31)c1ccccc1CO2
pEC50 [2]: 6.15 | CC50 at 48 h [3]: > 50000 nM | selectivity ratio [4]: > 71

N#Cc1ccc2c(c1)COc1ccccc1[C@@H]2N1[C@@H]2COCCN2C(=O)c2c(O)c(=O)ccn21
pEC50 [2]: 8.06 | CC50 at 48 h [3]: > 50000 nM | selectivity ratio [4]: > 5690

O=C1c2c(O)c(=O)ccn2N([C@@H]2c3ccccc3SCc3c2ccc(F)c3F)[C@@H]2COCCN12 [BALOXAVIR]
half-life at 1 µM [1]: 3.03 h | CC50 at 48 h [3]: 9300 nM | pEC50 [6]: 8.73 | pEC50 [8]: 8.69 | half-life at 1 µM [9]: 2.68 h | CLint [10]: 7.6 µL/min/mg | CLint [11]: 8.6 µL/min/mg | half-life [12]: 3.78 h | half-life [13]: 2.8 h | Tmax [14]: 1.67 h | Tmax [15]: 4.8 min | Cmax [16]: 523 ng/mL | Cmax [17]: 205 ng/mL | MRT inf [20]: 4.63 h | MRT inf [21]: 3 h | inhibition [26]: 76.9%

CCOC(=O)Cc1ccc2c(c1)[C@H](N1[C@@H]3COCCN3C(=O)c3c(O)c(=O)ccn31)c1ccccc1CO2
pEC50 [2]: 7.44 | CC50 at 48 h [3]: > 50000 nM | selectivity ratio [4]: > 1390

O=C1c2c(O)c(=O)ccn2N([C@H]2c3ccccc3OCc3c(Cl)cccc32)[C@@H]2COCCN12
pEC50 [2]: 9.17 | CC50 at 48 h [3]: 15600 nM | selectivity ratio [4]: 23200

O=C1c2c(O)c(=O)ccn2N([C@@H]2c3ccccc3OCc3c(F)cccc32)[C@@H]2COCCN12
pEC50 [2]: 8.08 | CC50 at 48 h [3]: > 50000 nM | selectivity ratio [4]: > 5940

O=C1c2c(O)c(=O)ccn2N([C@@H]2c3ccccc3COc3cc(C(F)(F)F)ccc32)[C@@H]2COCCN12
pEC50 [2]: 7.76 | CC50 at 48 h [3]: > 50000 nM | selectivity ratio [4]: > 2910

O=C1c2c(O)c(=O)ccn2N([C@H]2c3ccccc3OCc3c(F)cccc32)[C@@H]2COCCN12
pEC50 [2]: 8.11 | CC50 at 48 h [3]: > 50000 nM | selectivity ratio [4]: > 6390

O=C1c2c(O)c(=O)ccn2N([C@@H]2c3ccccc3COc3ccccc32)[C@@H]2COCCN12
pEC50 [2]: 8.76 | CC50 at 48 h [3]: > 50000 nM | selectivity ratio [4]: > 28600

O=C1c2c(O)c(=O)ccn2N([C@@H]2c3ccc(F)cc3COc3ccccc32)[C@@H]2COCCN12
pEC50 [2]: 8.60 | CC50 at 48 h [3]: 35200 nM | selectivity ratio [4]: 14100

O=C1c2c(O)c(=O)ccn2N([C@@H]2c3ccccc3COc3cc(F)ccc32)[C@@H]2COCCN12
pEC50 [2]: 8.41 | CC50 at 48 h [3]: > 50000 nM | selectivity ratio [4]: > 12800

O=C1c2c(O)c(=O)ccn2N([C@H]2c3ccccc3COc3ccccc32)[C@@H]2COCCN12
pEC50 [2]: 8.97 | CC50 at 48 h [3]: > 50000 nM | selectivity ratio [4]: > 47200

O=C1c2c(O)c(=O)ccn2N([C@H]2c3ccccc3COc3cc(C(F)(F)F)ccc32)[C@@H]2COCCN12
pEC50 [2]: 7.60 | CC50 at 48 h [3]: > 50000 nM | selectivity ratio [4]: > 2010

O=C1c2c(O)c(=O)ccn2N([C@@H]2c3ccccc3OCc3c(Cl)cccc32)[C@@H]2COCCN12
half-life at 1 µM [1]: 2.57 h | pEC50 [2]: 9.11 | CC50 at 48 h [3]: 24600 nM | selectivity ratio [4]: 31600 | Ratio [5]: >5 | pEC50 [6]: 7.84 | pEC50 [7]: 8.21 | pEC50 [8]: 8.63 | half-life at 1 µM [9]: 2.27 h | CLint [10]: 9 µL/min/mg | CLint [11]: 10.2 µL/min/mg | half-life [12]: 4.45 h | half-life [13]: 1.99 h | Tmax [14]: 2.67 h | Tmax [15]: 4.8 min | Cmax [16]: 222 ng/mL | Cmax [17]: 258 ng/mL | AUC(0-inf) [18]: 1680 ng·h/mL | AUC(0-inf) [19]: 355 ng·h/mL | MRT inf [20]: 6.25 h | MRT inf [21]: 2.57 h | bioavailability [22]: 31.5% | Activity [23]: Active | Activity [24]: Active | inhibition [25]: 72%

O=C1c2c(O)c(=O)ccn2N([C@@H]2c3ccccc3OCc3c2ccc(F)c3F)[C@@H]2COCCN12
pEC50 [2]: 8.77 | CC50 at 48 h [3]: 19100 nM | selectivity ratio [4]: 11400

O=C1c2c(O)c(=O)ccn2N([C@H]2c3ccccc3COc3c2ccc(F)c3F)[C@@H]2COCCN12
pEC50 [2]: 8.29 | CC50 at 48 h [3]: 33300 nM | selectivity ratio [4]: 6460

O=C1c2c(O)c(=O)ccn2N([C@H]2c3ccccc3OCc3c2ccc(F)c3F)[C@@H]2COCCN12
pEC50 [2]: 8.68 | CC50 at 48 h [3]: 33000 nM | selectivity ratio [4]: 15900

O=C1c2c(O)c(=O)ccn2N([C@@H]2c3ccccc3COc3c2ccc(F)c3F)[C@@H]2COCCN12
pEC50 [2]: 8.79 | CC50 at 48 h [3]: 22100 nM | selectivity ratio [4]: 13500
